In patent publication US9498467B2, “Treatment of chronic neutrophilic leukemia (CNL) and atypical chronic myeloid leukemia (aCML) by inhibitors of JAK1” (Incyte Corporation, priority 2014, dated 2016):

Legend:
[1] = biological target: T1, human JAK1 (a.a. 837-1142) (Homo sapiens, UniProt P23458); test: In vitro JAK kinase assay (HTRF), JAK1; format: biochemical; settings: 1 mM ATP
T1 construct: human JAK1 (a.a. 837-1142); made in house; host or cells: insect cells (baculovirus)

[2] = biological target: T2, human JAK2 (a.a. 828-1132) (Homo sapiens, UniProt O60674); test: In vitro JAK kinase assay (HTRF), JAK2; format: biochemical; settings: ratio of IC50s at 1 mM ATP
T2 construct: JAK2 (a.a. 828-1132); made in house; host or cells: insect cells (baculovirus)

[3] = tested on: GCSF induced pSTAT3 in human neutrophils; test: JAK human neutrophil assay (pSTAT3 ELISA); settings: 0.25 h, read-out: IC50 (inhibition of pSTAT3)

T2 sequence (O60674 828-1132): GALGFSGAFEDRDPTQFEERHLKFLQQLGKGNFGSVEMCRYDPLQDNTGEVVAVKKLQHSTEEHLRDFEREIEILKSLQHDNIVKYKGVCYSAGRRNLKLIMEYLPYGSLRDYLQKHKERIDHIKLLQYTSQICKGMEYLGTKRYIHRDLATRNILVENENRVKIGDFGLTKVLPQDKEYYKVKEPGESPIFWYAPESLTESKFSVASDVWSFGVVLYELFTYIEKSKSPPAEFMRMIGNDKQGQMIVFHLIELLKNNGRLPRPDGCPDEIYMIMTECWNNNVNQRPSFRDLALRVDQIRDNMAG
T1 sequence (P23458 849-1154): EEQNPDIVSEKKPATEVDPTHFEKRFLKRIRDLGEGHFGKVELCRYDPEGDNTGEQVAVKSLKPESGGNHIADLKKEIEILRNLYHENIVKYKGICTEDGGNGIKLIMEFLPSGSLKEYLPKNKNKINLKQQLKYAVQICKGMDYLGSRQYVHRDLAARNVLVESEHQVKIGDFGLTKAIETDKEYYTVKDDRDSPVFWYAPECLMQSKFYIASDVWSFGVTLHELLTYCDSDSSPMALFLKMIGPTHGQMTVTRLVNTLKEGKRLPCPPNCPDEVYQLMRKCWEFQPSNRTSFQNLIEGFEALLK

SMILES	IC50 [1] [nM]	JAK2/JAK1 [2]	IC50 [3] [nM]
C[C@@H](O)c1nc2cnc3ccsc3c2n1[C@H]1CC[C@H](CC#N)OC1 [Compound 1, ((2R,5S)-5-{2-[(1R)-1-hydroxyethyl]-1H-imidazo[4,5-d]thieno[3,2-b]pyridin-1-yl}tetrahydro-2H-pyran-2-yl)acetonitrile]	< 100	>10	< 100
Cc1n[nH]c(C)c1-c1cnn(C2(CC#N)CN(c3cc(F)c(C(=O)N[C@@H](C)C(F)(F)F)cc3F)C2)c1 [Compound 2, 4-[3-(cyanomethyl)-3-(3′,5′-dimethyl-1H,1′H-4,4′-bipyrazol-1-yl)azetidin-1-yl]-2,5-difluoro-N-[(1S)-2,2,2-trifluoro-1-methylethyl]benzamide]	–	–	< 100
N#CC[C@]1(n2cc(-c3ncnc4[nH]ccc34)cn2)C[C@H](N2CCC(Oc3cc(CN4CCC[C@@H]4CO)cc(C(F)(F)F)n3)CC2)C1 [Compound 13, {trans-3-(4-{[4-{[(2R)-2-(hydroxymethyl)pyrrolidin-1-yl]methyl}-6-(trifluoromethyl)pyridin-2-yl]oxy}piperidin-1-yl)-1-[4-(7H-pyrrolo[2,3-d]pyrimidin-4-yl)-1H-pyrazol-1-yl]cyclobutyl} acetonitrile]	< 10	>10	–
C[C@H](NC(=O)c1cc(F)c(N2CC(CC#N)(n3cc(-c4ncnc5[nH]ccc45)cn3)C2)cc1F)C(F)(F)F [Compound 16, 4-{3-(cyanomethyl)-3-[4-(7H-pyrrolo[2,3-d]pyrimidin-4-yl)-1H-pyrazol-1-yl]azetidin-1-yl}-2,5-difluoro-N-[(1S)-2,2,2-trifluoro-1-methylethyl]benzamide]	< 10	>10	–
N#CCC1(n2cc(-c3ncnc4[nH]ccc34)cn2)CN([C@H]2CC[C@@H](Oc3cc(CCO)nc(C(F)(F)F)n3)CC2)C1 [Compound 18, {1-(cis-4-{[6-(2-hydroxyethyl)-2-(trifluoromethyl)pyrimidin-4-yl]oxy}cyclohexyl)-3-[4-(7H-pyrrolo[2,3-d]pyrimidin-4-yl)-1H-pyrazol-1-yl]azetidin-3-yl}acetonitrile]	< 10	>10	–
CCNCc1cc(O[C@H]2CC[C@@H](N3CC(CC#N)(n4cc(-c5ncnc6[nH]ccc56)cn4)C3)CC2)nc(C(F)(F)F)c1 [Compound 19, {1-(cis-4-{[4-[(ethylamino)methyl]-6-(trifluoromethyl)pyridin-2-yl]oxy}cyclohexyl)-3-[4-(7H-pyrrolo[2,3-d]pyrimidin-4-yl)-1H-pyrazol-1-yl]azetidin-3-yl}acetonitrile]	< 10	>10	–
CC(C)(O)c1cc(O[C@H]2CC[C@@H](N3CC(CC#N)(n4cc(-c5ncnc6[nH]ccc56)cn4)C3)CC2)nc(C(F)(F)F)c1 [Compound 20, {1-(cis-4-{[4-(1-hydroxy-1-methylethyl)-6-(trifluoromethyl)pyridin-2-yl]oxy}cyclohexyl)-3-[4-(7H-pyrrolo[2,3-d]pyrimidin-4-yl)-1H-pyrazol-1-yl]azetidin-3-yl}acetonitrile]	< 10	>10	–
N#CCC1(n2cc(-c3ncnc4[nH]ccc34)cn2)CN([C@H]2CC[C@@H](Oc3cc(CN4CC[C@@H](O)C4)cc(C(F)(F)F)n3)CC2)C1 [Compound 21, {1-(cis-4-{[4-{[(3R)-3-hydroxypyrrolidin-1-yl]methyl}-6-(trifluoromethyl)pyridin-2-yl]oxy}cyclohexyl)-3-[4-(7H-pyrrolo[2,3-d]pyrimidin-4-yl)-1H-pyrazol-1-yl]azetidin-3-yl}acetonitrile]	< 10	>10	–
N#CCC1(n2cc(-c3ncnc4[nH]ccc34)cn2)CN([C@H]2CC[C@@H](Oc3cc(CN4CC[C@H](O)C4)cc(C(F)(F)F)n3)CC2)C1 [Compound 22, {1-(cis-4-{[4-{[(3S)-3-hydroxypyrrolidin-1-yl]methyl}-6-(trifluoromethyl)pyridin-2-yl]oxy}cyclohexyl)-3-[4-(7H-pyrrolo[2,3-d]pyrimidin-4-yl)-1H-pyrazol-1-yl]azetidin-3-yl}acetonitrile]	< 10	>10	–
C[C@@H](CO)NCc1cc(OC2CCN([C@H]3C[C@](CC#N)(n4cc(-c5ncnc6[nH]ccc56)cn4)C3)CC2)nc(C(F)(F)F)c1 [Compound 23, {trans-3-(4-{[4-({[(1S)-2-hydroxy-1-methylethyl]amino}methyl)-6-(trifluoromethyl)pyridin-2-yl]oxy}piperidin-1-yl)-1-[4-(7H-pyrrolo[2,3-d]pyrimidin-4-yl)-1H-pyrazol-1-yl]cyclobutyl} acetonitrile]	< 10	>10	–
C[C@@H](O)CNCc1cc(OC2CCN([C@H]3C[C@](CC#N)(n4cc(-c5ncnc6[nH]ccc56)cn4)C3)CC2)nc(C(F)(F)F)c1 [Compound 24, {trans-3-(4-{[4-({[(2R)-2-hydroxypropyl]amino}methyl)-6-(trifluoromethyl)pyridin-2-yl]oxy}piperidin-1-yl)-1-[4-(7H-pyrrolo[2,3-d]pyrimidin-4-yl)-1H-pyrazol-1-yl]cyclobutyl} acetonitrile]	< 10	>10	–
C[C@H](O)CNCc1cc(OC2CCN([C@H]3C[C@](CC#N)(n4cc(-c5ncnc6[nH]ccc56)cn4)C3)CC2)nc(C(F)(F)F)c1 [Compound 25, {trans-3-(4-{[4-({[(2S)-2-hydroxypropyl]amino}methyl)-6-(trifluoromethyl)pyridin-2-yl]oxy}piperidin-1-yl)-1-[4-(7H-pyrrolo[2,3-d]pyrimidin-4-yl)-1H-pyrazol-1-yl]cyclobutyl} acetonitrile]	< 10	>10	–
N#CC[C@]1(n2cc(-c3ncnc4[nH]ccc34)cn2)C[C@H](N2CCC(Oc3cc(CCO)cc(C(F)(F)F)n3)CC2)C1 [Compound 26, {trans-3-(4-{[4-(2-hydroxyethyl)-6-(trifluoromethyl)pyridin-2-yl]oxy}piperidin-1-yl)-1-[4-(7H-pyrrolo[2,3-d]pyrimidin-4-yl)-1H-pyrazol-1-yl]cyclobutyl} acetonitrile]	< 10	>10	–

The remaining lines, values ahead:

IC50 [1] [nM]	JAK2/JAK1 [2]	IC50 [3] [nM]	SMILES
< 10	>10	–	N#CCC(C1CCN(c2cccc(Cl)n2)C1)n1cc(-c2ncnc3[nH]ccc23)cn1 (single isomer, unassigned) [Compound 3, 3-[1-(6-chloropyridin-2-yl)pyrrolidin-3-yl]-3-[4-(7H-pyrrolo[2,3-d]pyrimidin-4-yl)-1H-pyrazol-1-yl]propanenitrile]
< 10	>10	–	N#CCC(C1CCN(c2nc3cccnc3o2)C1)n1cc(-c2ncnc3[nH]ccc23)cn1 (centres unmarked) [Compound 4, 3-(1-[1,3]oxazolo[5,4-b]pyridin-2-ylpyrrolidin-3-yl)-3-[4-(7H-pyrrolo[2,3-d]pyrimidin-4-yl)-1H-pyrazol-1-yl]propanenitrile]
< 10	>10	–	N#CCC(CN1CCN(C(=O)c2ccc(C#N)cc2F)CC1)n1cc(-c2ncnc3[nH]ccc23)cn1 (centres unmarked) [Compound 5]
< 10	>10	–	N#CCC(CN1CCN(C(=O)c2ccc(C#N)cc2F)CC1)n1ccc(-c2ncnc3[nH]ccc23)c1 (centres unmarked) [Compound 6, 4-[(4-{3-cyano-2-[3-(7H-pyrrolo[2,3-d]pyrimidin-4-yl)-1H-pyrrol-1-yl]propyl}piperazin-1-yl)carbonyl]-3-fluorobenzonitrile]
< 10	>10	< 100	N#CCC1(n2cc(-c3ncnc4[nH]ccc34)cn2)CN(C2CCN(C(=O)c3ccnc(C(F)(F)F)c3F)CC2)C1 [Compound 7, {1-{1-[3-Fluoro-2-(trifluoromethyl)iso-nicotinoyl]piperidin-4-yl}-3-[4-(7H-pyrrolo[2,3-d]pyrimidin-4-yl)-1H-pyrazol-1-yl]azetidin-3-yl}acetonitrile]
< 10	>10	–	N#CCC1(n2cc(-c3ncnc4[nH]ccc34)cn2)CN(C2CCN(C(=O)Nc3ccc(F)cc3C(F)(F)F)CC2)C1 [Compound 8, 4-{3-(Cyanomethyl)-3-[4-(7H-pyrrolo[2,3-d]pyrimidin-4-yl)-1H-pyrazol-1-yl]azetidin-1-yl}-N-[4-fluoro-2-(trifluoromethyl)phenyl] piperidine-1-carboxamide]
< 10	>10	–	N#CCC1(n2cc(-c3ncnc4[nH]ccc34)cn2)CN(C2CCN(C(=O)c3ccnc(C(F)(F)F)n3)CC2)C1 [Compound 9, [3-[4-(7H-pyrrolo[2,3-d]pyrimidin-4-yl)-1H-pyrazol-1-yl]-1-(1-{[2-(trifluoromethyl)pyrimidin-4-yl]carbonyl}piperidin-4-yl)azetidin-3-yl]acetonitrile]
< 10	>10	–	N#CC[C@]1(n2cc(-c3ncnc4[nH]ccc34)cn2)C[C@H](N2CCN(C(=O)c3ccnc(C(F)(F)F)n3)CC2)C1 [Compound 10, [trans-1-[4-(7H-pyrrolo[2,3-d]pyrimidin-4-yl)-1H-pyrazol-1-yl]-3-(4-{[2-(trifluoromethyl)pyrimidin-4-yl]carbonyl}piperazin-1-yl)cyclobutyl] acetonitrile]
< 10	>10	–	N#CC[C@]1(n2cc(-c3ncnc4[nH]ccc34)cn2)C[C@H](N2CCC(Oc3cc(CN4CC(O)C4)cc(C(F)(F)F)n3)CC2)C1 [Compound 11, {trans-3-(4-{[4-[(3-hydroxyazetidin-1-yl)methyl]-6-(trifluoromethyl)pyridin-2-yl]oxy}piperidin-1-yl)-1-[4-(7H-pyrrolo[2,3-d]pyrimidin-4-yl)-1H-pyrazol-1-yl]cyclobutyl} acetonitrile]
< 10	>10	–	N#CC[C@]1(n2cc(-c3ncnc4[nH]ccc34)cn2)C[C@H](N2CCC(Oc3cc(CN4CCC[C@H]4CO)cc(C(F)(F)F)n3)CC2)C1 [Compound 12, {trans-3-(4-{[4-{[(2S)-2-(hydroxymethyl)pyrrolidin-1-yl]methyl}-6-(trifluoromethyl)pyridin-2-yl]oxy}piperidin-1-yl)-1-[4-(7H-pyrrolo[2,3-d]pyrimidin-4-yl)-1H-pyrazol-1-yl]cyclobutyl} acetonitrile]
